pIC50: −log10 of the molar value.
How the values were obtained:
[1] = system: KB cell; details: Table 1; cited from earlier work
[2] = system: Hep2,2,15; details: Hep2,2,15, Table 1; cited from earlier work
[3] = system: DLD (DLD-1): human colon adenocarcinoma; test: In vitro anticancer assay (cytotoxicity), solid tumor cells
[4] = system: NCI (NCI-H661): human lung large cell carcinoma; test: as above

**Q.** With `N#Cc1ccccc1C#C/C=C\C#CCCCOC1CCCCO1` (stereo not shown) [Compound 2, 2-(9-(Tetrahydropyranyloxy)-3(Z)-nonen-1,5-diynyl)-benzonitrile] as the compound, how does the pIC50 [1] read?
**A.** Its pIC50 is over 8.00.

**Q.** What about the pIC50 [2] of the same compound?
**A.** Its pIC50 is under 5.00.

**Q.** What about the “IC50 Values of Cytotoxicities” value [3] of the same compound?
**A.** The value was “— (“—” means IC50 > 20 μg/ml)”.

**Q.** What about the “IC50 Values of Cytotoxicities” value [4] of the same compound?
**A.** The value was “— (“—” means IC50 > 20 μg/ml)”.
